Test results taken from patent publication US20260183350A1, “ANTIBIOTIC-RESISTANT BACTERIA” (priority 2022, published 2026).

Tests used:
[1] = test system: NDM-1 Enterobacter cloacae; assay: Nitrogen utilisation assay; type: cell-based; details: M9 minimal medium with glucose, 0.1% (w/v) nitrogen source
Method: (§1) New Delhi Metallo-β-lactamase 1 (NDM-1) Escherichia coli, NDM-1 Klebsiella pneumoniae, and NDM-1 Enterobacter cloacae were isolated from patients with intestinal CRE colonisation from the Imperial College Healthcare NHS Trust via rectal swab (REC ref. 19/LO/0112). The species were assigned by matrix assisted laser desorption ionization-time of flight (MALDI-TOF) mass spectrometry and later confirmed with 16S rRNA gene sequencing. CRE status was determined using X-pert Carba-R PCR detection (Cepheid, Sunnyvale, CA, USA), (Otter, J. A. et al. Detecting carbapenemase-producing Enterobacterales (CPE): an evaluation of an enhanced CPE infection control and screening programme in acute care. J Antimicrob Chemother 75, 2670-2676 (2020)).
(§2) Growth of CRE isolates on sole carbon or nitrogen sources was tested by inoculating each CRE isolate into a minimal medium supplemented with the nutrient of interest. First, CRE isolates were passaged from frozen glycerol stocks on Reasoner's 2A agar (R2A) plates. Cells were then suspended in M9 minimal media to a turbidity of 42% using a Turbidimeter (Biolog Inc.), then diluted a further 1 in 6 to inoculate the carbon or nitrogen utilisation assays. M9 minimal media contained the following (at final concentrations): 22 mM KH2PO4, 42 mM Na2HPO4, 9 mM NaCl, 0.49 mM MgSO4·7H2O, 0.09 mM CaCl2), 0.011 mM FeSO4·7H2O. For the carbon assays the M9 minimal medium was also supplemented with 0.1% (w/v) NH4Cl (as the nitrogen source) and the carbon sources were individually tested at 0.5% (w/v) concentration. For the nitrogen assays the M9 minimal medium was also supplemented with 0.5% (w/v) glucose (as the carbon source) and the nitrogen sources were individually tested at 0.1% (w/v) concentration. Cultures were incubated anaerobically and aerobically in a plate reader and OD600 readings were collected every 15 minutes for 24 hours.
(§3) Growth curves were analysed in Python (v3.6.5) using the AMiGA software (Midani, F. S., Collins, J. & Britton, R. A. AMiGA: Software for Automated Analysis of Microbial Growth Assays. mSystems 6, e0050821 (2021)). Growth of each isolate was measured with 6 wells from 2-3 independent experiments. Growth curves were normalised to the no substrate control using the subtraction method. AMiGA performed Gaussian Process regression to test differential growth between the substrate and the no substrate control. The functional difference in the OD (and its credible interval) was also computed between the substrate and the no substrate control.

[2] = test system: NDM-1 Escherichia coli; assay: Nitrogen utilisation assay; type: cell-based; details: M9 minimal medium with glucose, 0.1% (w/v) nitrogen source
Method: as §1, §2, §3

[3] = test system: NDM-1 Klebsiella pneumoniae; assay: Nitrogen utilisation assay; type: cell-based; details: M9 minimal medium with glucose, 0.1% (w/v) nitrogen source
Method: as §1, §2, §3

[4] = test system: vancomycin-resistant E. faecalis; assay: VRE nutrient utilization protocol: nitrogen sources, leave-one-out; type: cell-based, Enterococcus faecalis; details: aerobic; leave-one-out from nitrogen source mixture in minimal medium
Method: (§4) VRE minimal media consists of potassium phosphate monobasic (4 g/L), potassium phosphate dibasic (14 g/L), sodium citrate (1 g/L), magnesium sulphate (0.2 g/L), ammonium sulphate (2 g/L), adenosine (0.04 g/L), thymine (0.04 g/L), Kao and Michayluk vitamin solution [Sigma, K3129, 50× Stock](5×), glucose (1 g/L) and amino acid solution [Sigma, R7131, RPMI-1640, 50×](25×). If the study was performed under anaerobic conditions, fumarate (5.2 g/L) was added to increase growth of VRE strains. Carbon-free minimal media was prepared by leaving out glucose while nitrogen-free minimal media was prepared without the amino acid solution. Media was filter sterilized with a 0.22 micron filter and used immediately aerobically or degassed overnight if used anaerobically.
(§5) VRE strains were grown on R2A overnight before the cells were suspended in 0.9% saline to an OD of 0.38 (λ=595 nm). A 10% dilution of the cell suspension was prepared using VRE minimal media to achieve a final well OD of […] (λ=595 nm) greater than the sterile media OD. Both carbon and nitrogen source utilization were evaluated by adding the inoculated media and a filter-sterilised nutrient source solution into a well in a 1:1 ration to a final volume of 100 μL in aerobic tests and 200 μL in anaerobic tests. Carbon sources were tested individually and compared to a carbon-free control. To test nitrogen source utilization, a nitrogen source solution was prepared containing L-alanine (2 g/L), L-arginine (2.5 g/L, L-asparagine (0.71 g/L), L-aspartate (0.25 g/L), L-cysteine (0.625 g/L), L-glutamate (0.25 g/L), L-Glycine (0.125 g/L), L-histidine (0.1875 g/L), L-isoleucine (0.625 g/L), L-leucine (0.625 g/L), L-lysine HCl (0.5 g/L), L-methionine (0.1875 g/L), L-phenylalanine (0.1875 g/L), L-proline (0.25 g/L), L-serine (0.375 g/L), L-threonine (0.25 g/L), L-tryptophan (0.0625 g/L), L-tyrosine (0.29 g/L), L-valine (0.25 g/L), N-acetylglucosamine (2 g/L), and uracil (2.5 g/L). To test the strains' ability to utilize individual nitrogen sources, separate solutions were prepared eliminating one nitrogen source each. The change in growth compared to the complete nitrogen source solution control was used to determine nitrogen utilization. All carbon and nitrogen sources were tested in a technical triplicate for each biological replicate. Aerobic plates were incubated with a plate seal while anaerobic plates were not. The aerobic plate reader was set to read the plate (λ=595 nm, 37° C., 22 flashes per well, orbital shaking of 100 rpm for 15 s prior to each read) every 15 minutes for 24 hours. The anaerobic plate reader read the plate (λ=595 nm, 37° C., stationary) every 15 minutes for 24 hours.

[5] = test system: vancomycin-resistant E. faecium; assay: as above; type: cell-based, Enterococcus faecium; details: aerobic; leave-one-out from nitrogen source mixture in minimal medium
Method: as §4, §5

[6] = test system: NDM-1 Enterobacter cloacae; assay: Nutrient preference assay (nutrient mixture); type: cell-based; details: M9 with […] of each nutrient, up to 24 hours
Method: as §1
(§6) CRE isolates were passaged once from frozen glycerol stocks on R2A plates. Cells were suspended in M9 minimal media to a turbidity of 42% using a Turbidimeter (Biolog Inc.), then diluted 1 in 6 to inoculate the nutrient preference assays. M9 minimal media was supplemented with 0.015% of each of the following: L-arabinose, D-fructose, L-fucose, D-galactose, D-glucose, D-mannose, D-ribose, D-xylose, N-acetylglucosamine, D-maltose, sucrose, D-trehalose, L-alanine, L-arginine, L-aspartate, L-glutamate, L-glycine, L-isoleucine, L-leucine, L-lysine, L-methionine, L-phenylalanine, L-proline, L-threonine, L-tryptophan, L-tyrosine, L-valine, uracil, and succinate. Cultures were incubated anaerobically and aerobically in a plate reader and OD600 readings were collected every 15 minutes for 24 hours. Cultures were also incubated anaerobically and aerobically for 24 h and samples were collected at 0, 4, 8, and 24 hours post-inoculation for 1H-NMR spectroscopy. Changes in nutrients and metabolites by CRE isolates was compared to the sterile media control over time using a two-way mixed ANOVA followed by pairwise comparisons with Bonferroni correction. […]

[7] = test system: NDM-1 Escherichia coli; assay: Nutrient preference assay (nutrient mixture); type: cell-based; details: M9 with […] of each nutrient, up to 24 hours
Method: as §1, §6

[8] = test system: NDM-1 Klebsiella pneumoniae; assay: Nutrient preference assay (nutrient mixture); type: cell-based; details: M9 with […] of each nutrient, up to 24 hours
Method: as §1, §6

[9] = test system: NDM-1 Klebsiella pneumoniae; assay: Carbon utilisation assay; type: cell-based; details: aerobic; M9 minimal medium, 0.5% (w/v) carbon source
Method: as §1, §2, §3

[10] = test system: NDM-1 Enterobacter cloacae; assay: Carbon utilisation assay; type: cell-based; details: aerobic; M9 minimal medium, 0.5% (w/v) carbon source
Method: as §1, §2, §3

SMILES	Use as sole nitrogen source to support E. cloacae growth ([1]; aerobic)	Use as sole nitrogen source to support E. coli growth ([2]; aerobic)	Use as sole nitrogen source to support K. pneumoniae growth ([3]; aerobic)	Use as nitrogen source to support E. faecalis growth [4]	Use as nitrogen source to support E. faecium growth [5]	Utilisation of nutrient by E. cloacae from nutrient mixture (1H-NMR) ([6]; aerobic)	Utilisation of nutrient by E. cloacae from nutrient mixture (1H-NMR) ([6]; anaerobic)	also measured
CC[C@H](C)[C@H](N)C(=O)O [isoleucine, L-isoleucine]	able to grow	able to grow	able to grow	could use	could use			
C[C@@H](O)[C@H](N)C(=O)O [threonine, L-threonine]	able to grow	able to grow			could use	high utilisation	high utilisation	Utilisation of nutrient by E. coli from nutrient mixture (1H-NMR) ([7]; aerobic): moderate utilisation; Utilisation of nutrient by K. pneumoniae from nutrient mixture (1H-NMR) ([8]; aerobic): high utilisation
N[C@@H](Cc1ccccc1)C(=O)O [phenylalanine, L-phenylalanine]	able to grow				could use			
N[C@@H](CO)C(=O)O [serine, L-serine]				could use	could use			
O=c1cc[nH]c(=O)[nH]1 [uracil]	able to grow	able to grow	able to grow			did not use	did not utilise	Utilisation of nutrient by E. coli from nutrient mixture (1H-NMR) ([7]; aerobic): moderate utilisation; Utilisation of nutrient by E. coli from nutrient mixture (1H-NMR) ([7]; anaerobic): moderate utilisation; Utilisation of nutrient by K. pneumoniae from nutrient mixture (1H-NMR) ([8]; aerobic): low utilisation; Utilisation of nutrient by K. pneumoniae from nutrient mixture (1H-NMR) ([8]; anaerobic): did not utilise
N=C(N)NCCC[C@H](N)C(=O)O [arginine, L-arginine]			could use	could use	could use	high utilisation	high utilisation	Use as sole nitrogen source to support E. cloacae growth ([1]; anaerobic): could use; Use as sole nitrogen source to support E. coli growth ([2]; anaerobic): could use; Use as sole nitrogen source to support K. pneumoniae growth ([3]; anaerobic): could use
O=C(O)[C@@H]1CCCN1 [proline, L-proline]	able to grow	able to grow	able to grow			not utilised	not utilised	Use as sole carbon source to support K. pneumoniae growth [9]: able to grow; Utilisation of nutrient by E. coli from nutrient mixture (1H-NMR) ([7]; aerobic): not utilised; Utilisation of nutrient by E. coli from nutrient mixture (1H-NMR) ([7]; anaerobic): not utilised; Utilisation of nutrient by K. pneumoniae from nutrient mixture (1H-NMR) ([8]; anaerobic): not utilised
C[C@H](O)[C@@H](O)[C@@H](O)[C@H](O)C=O [fucose, L-fucose]								Use as sole carbon source to support E. cloacae growth [10]: able to grow; Utilisation of nutrient by K. pneumoniae from nutrient mixture (1H-NMR) ([8]; aerobic): not utilised; Utilisation of nutrient by K. pneumoniae from nutrient mixture (1H-NMR) ([8]; anaerobic): not utilised
CSCC[C@H](N)C(=O)O [methionine, L-methionine]	able to grow	able to grow	able to grow	could use	could use			
N[C@@H](Cc1c[nH]cn1)C(=O)O [histidine, L-histidine]				could use	could use			
N[C@@H](CS)C(=O)O [cysteine, L-cysteine]				could use				
CC(C)[C@H](N)C(=O)O [valine, L-valine]				could use	could use			Use as sole nitrogen source to support E. coli growth ([2]; anaerobic): could use
N[C@@H](Cc1ccc(O)cc1)C(=O)O [tyrosine, L-tyrosine]		able to grow				not utilised	not utilised	
NCC(=O)O [glycine, L-glycine]	able to grow	able to grow	able to grow	could use	could use			
CC(C)C[C@H](N)C(=O)O [leucine, L-leucine]	able to grow	able to grow	able to grow	could use	could use			
